SMILES strings stand for the structures. Values joined by “and” are separate entries in the source; they are usually repeats but may differ in a detail not shown here. Identical values can stand only once. Toxic doses and inconclusive results are not listed.

This assay relates to BDF1 mice, B16 melanoma ip, median survival T/C. Nature of the assay: NCI In Vivo Anticancer Drug Screen. Data for tumor model B16 Melanoma (intraperitoneal) in B6D2F1 (BDF1) mice. The conditions noted are these: endpoint: median survival time, higher = longer survival. The gist of the method:
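Compounds were tested in mice carrying transplantable tumors. Survival or tumor size was recorded, and each value is the treated-group measurement (T) divided by that of the vehicle-treated control group (C).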

The mark [1] stands for this setting: dose: 50.0 mg/kg/injection, schedule: Q01DX009 (ip), vehicle: saline with Tween-80.
The mark [2] stands for this setting: dose: 100.0 mg/kg/injection, schedule: Q01DX009 (ip), vehicle: saline with Tween-80.
Setting [3] is: dose: 200.0 mg/kg/injection, schedule: Q01DX009 (ip), vehicle: saline with Tween-80.
Where [4] appears, read: dose: 100.0 mg/kg/injection, schedule: Q01DX009 (ip), vehicle: Klucel (hydroxypropylcellulose) (HPC).
The mark [5] stands for this setting: dose: 200.0 mg/kg/injection, schedule: Q01DX009 (ip), vehicle: Klucel (hydroxypropylcellulose) (HPC).
Setting [6] is: dose: 25.0 mg/kg/injection, schedule: Q01DX009 (ip), vehicle: saline with Tween-80.
Where [7] appears, read: dose: 12.5 mg/kg/injection, schedule: Q01DX009 (ip), vehicle: saline with Tween-80.

`OCCc1ccccc1`: the T/C runs as follows: (dose: 31.3 mg/kg/injection, schedule: Q01DX009 (ip), vehicle: saline with Tween-80) 93 % of control; under setting [1], 100 % of control; (dose: 62.5 mg/kg/injection, schedule: Q01DX009 (ip), vehicle: saline with Tween-80) 95 % of control; under setting [2], 97 % of control; (dose: 125.0 mg/kg/injection, schedule: Q01DX009 (ip), vehicle: saline with Tween-80) 100 % of control; under setting [3], 105 % of control. In addition, the T/C (dose: 250.0 mg/kg/injection, schedule: Q01DX009 (ip), vehicle: saline with Tween-80) was 93 % of control.
In the case of `O=C1NC(=O)/C(=C/c2ccccc2)N1`, the T/C is, setting by setting: under setting [4], 100 % of control; under setting [5], 107 % of control.
Consider `C[n+]1c(/C=C/c2ccc(O)c3ncccc23)[se]c2ccccc21`, for which the T/C reads like this: (dose: 0.38 mg/kg/injection, schedule: Q01DX009 (ip), vehicle: saline) 102 % of control; (dose: 0.75 mg/kg/injection, schedule: Q01DX009 (ip), vehicle: saline) 109 % of control; (dose: 1.5 mg/kg/injection, schedule: Q01DX009 (ip), vehicle: saline) 106 % of control; (dose: 3.0 mg/kg/injection, schedule: Q01DX009 (ip), vehicle: saline) 109 % of control and 115 % of control; (dose: 6.0 mg/kg/injection, schedule: Q01DX009 (ip), vehicle: saline) 106 % of control and 124 % of control; (dose: 12.0 mg/kg/injection, schedule: Q01DX009 (ip), vehicle: saline) 115 % of control. Moreover, the T/C (dose: 24.0 mg/kg/injection, schedule: Q01DX009 (ip), vehicle: saline) was 122 % of control.
In the case of `C=C(C)C12CC(C)C34OC(CCCCCCCCCCC)(OC1C3C1OC1(CO)C(O)C1(O)C(=O)C(C)=CC14C)O2` (stereo unspecified), the T/C is 103 % of control (dose: 0.05 mg/kg/injection, schedule: Q01DX009 (ip), vehicle: distilled water + Tween-80); 102 % of control (dose: 0.1 mg/kg/injection, schedule: Q01DX009 (ip), vehicle: distilled water + Tween-80); 91 % of control (dose: 0.2 mg/kg/injection, schedule: Q01DX009 (ip), vehicle: distilled water + Tween-80); 90 % of control (dose: 0.4 mg/kg/injection, schedule: Q01DX009 (ip), vehicle: distilled water + Tween-80).
Regarding `CCC(C)NC(=O)Nc1cccc(Cl)c1C` (stereo unspecified), the T/C is 102 % of control under setting [2] and 96 % of control under setting [3].
Regarding `N=P(N[P+](N)(c1ccccc1)c1ccccc1)(c1ccccc1)c1ccccc1`, the T/C was 101 % of control (dose: 1.56 mg/kg/injection, schedule: Q01DX009 (ip), vehicle: Klucel (hydroxypropylcellulose) (HPC)); 107 % of control (dose: 3.12 mg/kg/injection, schedule: Q01DX009 (ip), vehicle: Klucel (hydroxypropylcellulose) (HPC)); 108 % of control (dose: 6.25 mg/kg/injection, schedule: Q01DX009 (ip), vehicle: Klucel (hydroxypropylcellulose) (HPC)).
Regarding `O=[N+]([O-])c1ccc2nc3c(nc2c1)-c1cccc2cccc-3c12`, the T/C by setting is: under setting [1], 103 % of control; under setting [2], 100 % of control; under setting [3], 98 % of control.
For the molecule `Clc1nnc(Nc2ccccc2)c2ccccc12`, the T/C was 92 % of control under setting [4]; 97 % of control under setting [5]; 86 % of control (dose: 400.0 mg/kg/injection, schedule: Q01DX009 (ip), vehicle: Klucel (hydroxypropylcellulose) (HPC)).
Turning to `Nc1nc(=S)c2[nH]cnc2[nH]1`, the T/C runs as follows: (dose: 0.25 mg/kg/injection, schedule: Q01DX009 (ip), vehicle: saline sonified) 100 % of control; (dose: 0.25 mg/kg/injection, schedule: Q01DX009 (ip), vehicle: suspension in saline) 109 % of control; (dose: 0.5 mg/kg/injection, schedule: Q01DX009 (ip), vehicle: saline sonified) 112 % of control and 115 % of control; (dose: 0.5 mg/kg/injection, schedule: Q01DX009 (ip), vehicle: suspension in saline) 120 % of control; (dose: 1.0 mg/kg/injection, schedule: Q01DX009 (ip), vehicle: saline sonified) 100 % of control; (dose: 1.0 mg/kg/injection, schedule: Q01DX009 (ip), vehicle: suspension in saline) 105 % of control. Besides, the T/C (dose: 2.0 mg/kg/injection, schedule: Q01DX009 (ip), vehicle: saline sonified) is 95 % of control and 105 % of control; the T/C (dose: 2.0 mg/kg/injection, schedule: Q01DX009 (ip), vehicle: saline with Tween-80) is 111 % of control; the T/C (dose: 2.0 mg/kg/injection, schedule: Q01DX009 (ip), vehicle: suspension in saline) was 107 % of control.
On to `O=C1c2cccnc2C(=O)c2c(O)ccc(O)c21`, for which the T/C by setting is: under setting [6], 92 % of control; under setting [1], 103 % of control; under setting [2], 112 % of control; under setting [3], 89 % of control.
Take `COC(=O)C[C@](O)(CCC(C)(C)O)C(=O)O[C@@H]1C(OC)=C[C@]23CCCN2CCc2cc4c(cc2[C@H]13)OCO4`: the T/C is 152 % of control (dose: 0.25 mg/kg/injection, schedule: Q01DX009 (ip), vehicle: saline); 150 % of control (dose: 1.0 mg/kg/injection, schedule: Q01DX009 (ip), vehicle: saline); 102 % of control (dose: 2.0 mg/kg/injection, schedule: Q01DX009 (ip), vehicle: saline); 104 % of control (dose: 32.0 micrograms/kg/injection, schedule: Q01DX009 (ip), vehicle: saline); 109 % of control (dose: 63.0 micrograms/kg/injection, schedule: Q01DX009 (ip), vehicle: saline); 113 % of control (dose: 125.0 micrograms/kg/injection, schedule: Q01DX009 (ip), vehicle: saline).
Take `CCCCCCCCSCCO`: the T/C runs as follows: under setting [7], 102 % of control; under setting [6], 97 % of control.
As for `CN(C)CCN1C(=O)CC(c2ccccc2)Sc2ccccc21` (stereo unspecified), the T/C runs as follows: (dose: 3.12 mg/kg/injection, schedule: Q01DX009 (ip), vehicle: saline) 115 % of control; (dose: 6.25 mg/kg/injection, schedule: Q01DX009 (ip), vehicle: saline) 112 % of control; (dose: 12.5 mg/kg/injection, schedule: Q01DX009 (ip), vehicle: saline) 107 % of control; (dose: 25.0 mg/kg/injection, schedule: Q01DX009 (ip), vehicle: saline) 97 % of control.
`O=C(/C=C/C(=O)Oc1ccc(Cl)cc1Cl)Oc1ccc(Cl)cc1Cl`: the T/C was 100 % of control (dose: 25.0 mg/kg/injection, schedule: Q01DX009 (ip), vehicle: Klucel (hydroxypropylcellulose) (HPC)); 91 % of control (dose: 50.0 mg/kg/injection, schedule: Q01DX009 (ip), vehicle: Klucel (hydroxypropylcellulose) (HPC)); 88 % of control and 94 % of control under setting [4].
On to `O=c1ccn(C2OC(CO)C(O)C2O)c(=O)[nH]1` (stereo unspecified), for which the T/C is 100 % of control (dose: 16.0 mg/kg/injection, schedule: Q01DX009 (ip), vehicle: saline); 98 % of control and 104 % of control (dose: 32.0 mg/kg/injection, schedule: Q01DX009 (ip), vehicle: Klucel (hydroxypropylcellulose) (HPC)); 96 % of control and 101 % of control (dose: 32.0 mg/kg/injection, schedule: Q01DX009 (ip), vehicle: saline); 99 % of control and 101 % of control (dose: 64.0 mg/kg/injection, schedule: Q01DX009 (ip), vehicle: Klucel (hydroxypropylcellulose) (HPC)); 93 % of control and 98 % of control (dose: 64.0 mg/kg/injection, schedule: Q01DX009 (ip), vehicle: saline); 103 % of control (dose: 128.0 mg/kg/injection, schedule: Q01DX009 (ip), vehicle: Klucel (hydroxypropylcellulose) (HPC)). Moreover, the T/C (dose: 128.0 mg/kg/injection, schedule: Q01DX009 (ip), vehicle: saline) is 101 % of control and 114 % of control; the T/C (dose: 256.0 mg/kg/injection, schedule: Q01DX009 (ip), vehicle: Klucel (hydroxypropylcellulose) (HPC)) was 97 % of control and 103 % of control; the T/C (dose: 256.0 mg/kg/injection, schedule: Q01DX009 (ip), vehicle: saline) was 100 % of control and 110 % of control; the T/C (dose: 512.0 mg/kg/injection, schedule: Q01DX009 (ip), vehicle: Klucel (hydroxypropylcellulose) (HPC)) is 102 % of control and 108 % of control; the T/C (dose: 512.0 mg/kg/injection, schedule: Q01DX009 (ip), vehicle: saline) is 105 % of control.
Consider `O=C(CC1(Cl)C(F)(F)C(F)(F)C1(F)F)c1ccccc1`, for which the T/C is 100 % of control (dose: 0.75 mg/kg/injection, schedule: Q01DX009 (ip), vehicle: saline with Tween-80); 100 % of control (dose: 1.5 mg/kg/injection, schedule: Q01DX009 (ip), vehicle: saline with Tween-80); 95 % of control (dose: 3.0 mg/kg/injection, schedule: Q01DX009 (ip), vehicle: saline with Tween-80); 100 % of control (dose: 4.0 mg/kg/injection, schedule: Q04DX003 (ip), vehicle: saline); 90 % of control under setting [7]; 102 % of control (dose: 25.0 mg/kg/injection, schedule: Q04DX003 (ip), vehicle: saline with Tween-80).
